Patent publication US7863415B2 (The Regents of the University of California, priority 2004, dated 2011)
“Also recorded” adds a separate entry of the source. Starred links: 1 amine or outer side, 2 acyl side, 3 side chain; linkers in the order of their positions; H or OH if unused. Non-standard residues stand in square brackets, D forms with d. Residues, ends and D or L forms follow the SMILES beside them. X1 = N=C(N)NC(=O)c1nc(Cl)c(N(CC(=O)[*:2])[*:1])nc1N

Experiments:
[1] = Incubation in buffer solutions without enzymes, LC-MS; type: in vitro ADME
Description: (§1) Compound 3b is a C5am-Gly-peptide conjugate containing two D-amino acids, and compound 3c is a C5am-Gly-peptide conjugate coupled to a peptide to generate an analog of opioid peptides that cross the blood brain barrier (BBB). The resultant conjugates (compounds 3a-c) were tested for selective cleavage by the brain peptidase enkephalinase (neutral endopeptidase 24.11; Calbiochem) via incubation for 24 h in the presence or absence of the enzyme, and aliquots from the reaction solutions were then analyzed by LC-MS to identify the C5am-Gly conjugate (compound 3a), starting material, and enzymatic cleavage products (see, Scheme 3). As negative control experiments, the conjugates were analyzed following treatment with (1) bovine pancreatic trypsin (Calbiochem) or (2) the buffer solutions without enzymes.

[2] = tested on: enkephalinase (endopeptidase 24.11); test: Enzyme digestion with enkephalinase, LC-MS/ESI; type: in vitro ADME, porcine; settings: for Conclusion (Peptidase: Enkephalinase): 10 μM conjugate, 10 units enzyme, 25° C., pH 7.4, 24 h; for Cleavage by enkephalinase (release of compound 3a): 24 h incubation, LC-MS
Description: as §1
(§2) Enzyme digestion. Endopeptidase 24.11 (neutral, porcine kidney) and trypsin (bovine pancreas) were purchased from CalBiochem (San Diego, Calif.) and used as received. Enzymatic cleavage experiments using endopeptidase 24.11 were conducted at 25° C. in a pH 7.4 Tris buffer (150 mM NaCl, 50 mM Tris, 0.1% Triton X-100) as recommended by the manufacturer (see also, Barnes et al., J. Neurochem., 64:1826-1832 (1995), Gafford et al., Biochemistry, 22:3265-3271 (1983)). Similarly, trypsin cleavage experiments were conducted at 25° C. in pH 7.4 Dulbecco's phosphate buffered saline (Gibco; Grand Island, N.Y.). The digestion reactions included 10 μM of the amiloride-peptide conjugate and 10 units of enzyme in 250 μL of buffer. Direct aliquots were analyzed by LC-MS/ESI following a 24 hour incubation period.
(§3) Enzyme Digestion Study. Compounds 3a-d were each incubated at 25° C. with 10 units of enkephalinase (endopeptidase 24.11) to determine their susceptibility towards enzymatic cleavage. Reaction aliquots were taken following a 24 hour incubation period and analyzed directly by LC-MS/ESI (Thermo Finnigan LCQ) for the presence of the starting material and the targeted cleavage product, compound 3a (C5am-Gly). […] Since there are no basic amino acid residues in compounds 3a-d, trypsin was employed as a negative control to ensure that any observed cleavage products could be ascribed only to endopeptidase-specific interactions (Jackson, Protein Science, 8:603-613 (1999)).

[3] = tested on: U87 glioma cells; test: Glioma cell proliferation, manual cell counts with trypan blue; type: cell-based, human
Description: C(5)-amiloride glycine conjugate (C5am-Gly) inhibits NHE1 in U87 glioma cells and is antiproliferative. […] The inhibitory activity of C5am-Gly against NCX was tested and a systematic log dose screen of C5am-Gly against a panel of glioma cells and primary astrocytes was performed.
Manual cell counts with dye exclusion assays. Identical concentrations of glioma cells can be plated on 60 mm dishes and grown until 50% confluent. Following drug treatments, media containing floating cells can be collected in suspension. Adherent cells can be rinsed in calcium- and magnesium-free phosphate-buffered saline (PBS-CMF) and removed by incubation with 0.25% v/v trypsin for 5 minutes (37° C.). Cell suspensions can be combined with the floating fraction and centrifuged at 350×g for 5 minutes. The resulting pellet (one per dish) can be resuspended in equal volumes of PBS-CMF with 0.4% trypan blue and/or 500 nM Sytox Green. 10 μL aliquots of the suspension can be plated on a hemocytometer, and cells can be counted 5 minutes after staining. Simultaneous staining of cells with trypan (TB) and Sytox Green (SG) can be visualized by switching between visible light and fluorescein green.

[4] = tested on: U87 cells; test: Intracellular translocation into U87 cells by fluorescence microscopy; settings: 50 μM; 90 and 180 min; 380 nm excitation, 510 nm emission
Description: Fluorescence Microscopy. […] Excitation light was provided by a xenon arc lamp coupled to the Polychrome IV scanning monochromator (Till Photonics; Grafelfing, Germany) that alternately excites with different wavelengths. Excitation light was delivered by fiber optics to cells through the epifluorescence port of a Nikon E600 microscope coupled to a Nikon Fluor 60× water immersion lens. The detector was an Orca II-ER CCD digital camera (Hamamatsu USA; Bridgewater, N.J.), which is controlled by C-Imaging Simple PCI software (Compix; Cranberry Township, Pa.).
Intracellular emission intensities were collected in regions of interest (ROI) from an average of 4-8 cells/field using Simple PCI imaging software. […] Images were captured as TIFF files (C-imaging Simple PCI software), and light and fluorescent images of the same field were imported in Photoshop 6.0 and vector graphics added using Illustrator 9.0.1 (Adobe; San Jose, Calif.).

[5] = biological target: T1, trypsin (Bos taurus, UniProt P00760); test: Enzyme digestion with trypsin (negative control), LC-MS/ESI; type: in vitro ADME, bovine; settings: for Conclusion (Peptidase: Trypsin): 10 μM conjugate, 10 units enzyme, 25° C., pH 7.4, 24 h; for Cleavage by trypsin (release of compound 3a): 24 h incubation, LC-MS
T1 construct: purchased CalBiochem (San Diego, Calif.); host or cells: bovine pancreas
T1 sequence (P00760 24-246): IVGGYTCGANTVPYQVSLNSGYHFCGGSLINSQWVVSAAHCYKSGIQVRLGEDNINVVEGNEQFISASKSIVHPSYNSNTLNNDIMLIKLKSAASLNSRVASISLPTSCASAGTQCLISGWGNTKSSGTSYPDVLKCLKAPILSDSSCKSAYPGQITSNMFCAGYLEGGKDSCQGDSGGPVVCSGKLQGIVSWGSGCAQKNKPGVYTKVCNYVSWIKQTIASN
Description: as §1, §2, §3

[6] = biological target: NHE1 (Homo sapiens, UniProt P19634); test: NHE1 inhibition: sodium-dependent pHi recovery in BCECF-loaded U87 glial cells after ammonium chloride pre-pulse; type: cell-based; set-up: Sodium-dependent proton extrusion in U87 glial cells and in primary astrocytes is mediated by the type 1 sodium proton exchanger (NHE1); endogenous in cells; host or cells: U87 human glioma cells
Description: Intracellular pH Measurements. U87 glial cells were grown on glass coverslips and incubated for 30 minutes at 37° C. with the pH-sensitive dye, 2′,7′-bis(2-carboxyethyl)-5(6)-carboxyfluorescein-AM (BCECF-AM; Molecular Probes, OR). Cells were rinsed with HEPES Ringer buffer twice and maintained at 37° C. for an additional 15 minutes to permit intracellular hydrolysis of the AM ester; trapping BCECF within the cells. Cells on coverslips were placed in a Hitachi F2000 fluorescent spectrophotometer and excited at 440 and 507 nm with fluorescent emissions recorded at 535 nm (Hegde et al., J. Pharmacol. Exp. Ther., 310:67-74 (2004)).
NHE inhibition by compounds 3a and 3c was evaluated using intracellular pH (pHi) measurements in the U87 human glial cell line (Hegde et al., supra). Cells loaded with BCECF were then acidified using the ammonium chloride pre-pulse method (Roos et al., Physiol Rev, 61:296-434 (1981)). The subsequent sodium-dependent recovery of pHi by these cells in the absence of bicarbonate was monitored using a spectrofluorometer. Sodium-dependent proton extrusion in U87 glial cells and in primary astrocytes is mediated by the type 1 sodium proton exchanger (NHE1) (McLean et al., supra; Hegde et al., supra) and was monitored in the presence or absence of compound 3a or 3c.
IC50 drug determinations for NHE1. This method utilizes spectrofluorometric measurements of [H^+]i as described above. The ammonium chloride prepulse method can be used to acidify cells in the presence of HR that is sodium-substituted with NMDG. Perfusion of the acidified cells with HR that contains sodium causes activation of NHE1 that is inhibited in a concentration-dependent fashion as described in McLean et al., supra.

[7] = tested on: [Ca^2+]i in U87 glioma cells; test: [Ca2+]i in U87 glioma cells loaded with fura-2AM, quantitative fluorescent microscopy; type: cell-based, human
Description: Therefore, the levels of [Ca^2+]i in U87 glioma cells loaded with fura-2AM were measured using quantitative fluorescent microscopy. […] The ATP-dependent calcium regulatory mechanisms within U87 glioma cells containing fura-2 were then examined. […] ATP synthase operates in reverse when milimolar concentrations of calcium are stored by the mitochondrion (Nicholls, Bioenergetics, 3, Academic Press, London, 3rd edition (2002)).
Quantitative fluorescent microscopy of [Ca^2+]i levels. [Ca^2+]i levels can be measured in cells loaded with either fura-2A or fura-2FFAM under the conditions described above.

[8] = tested on: glioma cells and primary astrocytes; test: Cell entry by confocal microscopy; type: in vitro ADME
[9] = tested on: NHE1 and NCX; settings: NHE1 and NCX inhibitors from the literature; cited from earlier work
[10] = tested on: glioma in poorly vascularized tumor regions; test: Single intracerebral infusion of DCB in tumor-bearing animals; type: in vivo; settings: 10 pmol over 2 h
Description: Unfortunately, DCB was associated with 4 of 5 animals dying during the following 12 to 24 h.

[11] = tested on: U87 glioma cells; test: Glioma cell death, manual cell counts with trypan blue exclusion
[12] = tested on: T2, Compound 3c (C5am-Gly-Gly-Gly-Gly-Phe-Leu-OH)
T2 sequence: GGGGFL

[13] = tested on: T3, Compound 3b (C5am-Gly-D-Ala-Gly-Phe-D-Leu-OH)
T3 sequence: GXGFX

[14] = tested on: T4, Compound 3d (C5am conjugate of the peptide Gly-Gly-Gly-Phe-Leu)
T4 sequence: GGGFL

NHE1, sequence (P19634 whole entry): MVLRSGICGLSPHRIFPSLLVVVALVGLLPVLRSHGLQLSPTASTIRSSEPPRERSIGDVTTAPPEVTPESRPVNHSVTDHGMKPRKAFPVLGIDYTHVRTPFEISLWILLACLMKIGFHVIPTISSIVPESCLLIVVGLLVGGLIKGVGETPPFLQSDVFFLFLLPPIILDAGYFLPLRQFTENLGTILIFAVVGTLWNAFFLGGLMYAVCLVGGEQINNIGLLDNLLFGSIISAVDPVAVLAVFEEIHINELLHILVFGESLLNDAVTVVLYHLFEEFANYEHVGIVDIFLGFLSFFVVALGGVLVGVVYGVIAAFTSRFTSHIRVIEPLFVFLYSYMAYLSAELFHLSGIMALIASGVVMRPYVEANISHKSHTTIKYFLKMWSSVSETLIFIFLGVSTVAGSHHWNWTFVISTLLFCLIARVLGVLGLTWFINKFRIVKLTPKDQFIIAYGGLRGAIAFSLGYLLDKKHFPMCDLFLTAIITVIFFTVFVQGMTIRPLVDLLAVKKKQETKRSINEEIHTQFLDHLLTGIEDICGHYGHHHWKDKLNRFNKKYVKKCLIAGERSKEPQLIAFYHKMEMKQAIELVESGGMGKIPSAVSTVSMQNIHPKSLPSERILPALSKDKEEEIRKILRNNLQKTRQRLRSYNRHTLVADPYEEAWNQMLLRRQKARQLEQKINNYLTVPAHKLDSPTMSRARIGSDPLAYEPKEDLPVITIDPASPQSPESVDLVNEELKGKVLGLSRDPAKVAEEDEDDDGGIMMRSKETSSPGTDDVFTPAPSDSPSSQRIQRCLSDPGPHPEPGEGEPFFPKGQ

N=C(N)NC(=O)c1nc(Cl)c(NCC(=O)O)nc1N [Compound 3a]
Stability in control (buffer) digestion [1]: unaffected
Conclusion (Peptidase: Enkephalinase) [2]: Enkephalinase resistant
Cleavage by enkephalinase (release of compound 3a) [2]: unaffected; also recorded: stable
Glioma Effect: antiproliferative concentration ([3]; glioma cells): ≦100 μM antiproliferative
Proliferation of U87 glioma cells, % of stage-matched controls ([3]; ≦100 μM, 48 h): 22%
Intracellular accumulation in U87 cells [4]: no intracellular fluorescence above mean intracellular background; also recorded: failed to detect; also recorded: did not accumulate
Conclusion (Peptidase: Trypsin) [5]: Trypsin resistant
Cleavage by trypsin (release of compound 3a) [5]: unaffected; also recorded: stable
IC50 ([6]; U87 glial cells, sodium-dependent pHi recovery without bicarbonate, read-out: IC50 (μM) +/− SD (NHE inhibition)): 13 ± 7 µM

CC(C)C[C@@H](NC(=O)[C@H](Cc1ccccc1)NC(=O)CNC(=O)[C@@H](C)NC(=O)CNc1nc(N)c(C(=O)NC(=N)N)nc1Cl)C(=O)O [Compound 3b, C5am-Gly-D-Ala-Gly-Phe-D-Leu-OH] (H-[X1][dA]GF[dL]-OH)
Stability in control (buffer) digestion [1]: not cleaved
Conclusion (Peptidase: Enkephalinase) [2]: Enkephalinase resistant
Cleavage by enkephalinase (release of compound 3a) [2]: not cleaved; also recorded: resistant
Conclusion (Peptidase: Trypsin) [5]: Trypsin resistant
Cleavage by trypsin (release of compound 3a) [5]: not cleaved; also recorded: resistant

N=C(NCc1ccc(Cl)cc1Cl)NC(=O)c1nc(Cl)c(N)nc1N [DCB, 2,4-dichlorobenzamil]
Effect of pretreatment on [Ca2+]i after calcium release from mitochondrial stores ([7]; U87 glioma cells, FCCP or oligomycin): increase to cytotoxic levels
Persistent increase of [Ca2+]i ([7]; pretreatment followed by oligomycin or FCCP): > 800 nM
Time to enter glioma cells and primary astrocytes [8]: ≤ 150 min
Rel. Activity [9]: NCX > NHE
Animals dying during the following 12 to 24 h [10]: 4 of 5
Glioma death within poorly vascularized tumor regions (histology) [10]: extensive glioma death
Concentration that killed U87 glioma cells ([11]; U87 glioma cells, C2am-Gly within 24 h): 15 µM
Glioma Effect: cytotoxic concentration ([11]; glioma cells): 15 μM cytotoxic
Concentration that killed glioma cells ([11]; glioma cells, amiloride within 48-72 hours): ≥ 20 µM
Concentration that inhibits NHE1 and reduces pHi ([6]; U87 glioma cells loaded with BCECF): 50-100 nM

Enkephalinase (neutral endopeptidase 24.11, porcine kidney; CalBiochem)
Enzymatic digestion, LC-MS fragments at 24 h; Conclusion [12]: Enkephalinase-mediated release of 3a
Enzymatic digestion, LC-MS fragments at 24 h; Conclusion [13]: Enkephalinase resistant
Enzymatic digestion, LC-MS fragments at 24 h; Conclusion [14]: Enkephalinase resistant
